In patent publication US20110294155A1, “MODULATION OF AN ION CHANNEL OR RECEPTOR” (Howard Florey Institute, priority 2008, published 2011):
“Also recorded” adds a separate entry of the source.

Molecular target: skeletal muscle Nav1.4 sodium channels (Homo sapiens, UniProt P35499)
Test: Dynamic clamp whole cell assay of action potential firing at HEK cells expressing Nav1.4 sodium channels
Type: cell-based
Protocol: Twenty-four hours prior to experimentation, cells were dissociated using Versene (EDTA) and plated at 10-12% confluency onto coverslips. The following day the coverslips were placed into the recording chamber and held at 22-25° C. for the duration of the experiments.
Borosilicate glass pipettes (WPI) were used for the whole cell assay. These pipettes were filled with an intracellular solution containing (mM): 10 NaF, 110 CsF, 20 TEA.Cl, 2 ethylene glycol tetraacetic acid and 10 HEPES, with pH adjusted to 7.4 using CsOH and osmolarity adjusted to 310 mosmol/L with sucrose.
The bath solution contained in (mM): 141 NaCl, 4 KCl, 1.0 MgCl2, 1.8 CaCl2, 10 HEPES buffer, and 4 tetraethylammonium (TEA).Cl, with pH adjusted to 7.4 with NaOH and osmolarity adjusted to 310 mosmol/L with sucrose. Bath temperature was controlled using a Warner Instruments (Hamden, Conn.) controller (TC-344B) with inline solution and bath heating.
Electrophysiological recordings were made 10 minutes after establishing whole cell recording. Recordings were made on an EPC-9 patch clamp amplifier (Heka Instruments, Lambrecht, Germany) filtered at 14.4 kHz with >80% series resistance compensation and sampled at 50 kHz. The current monitor output from the EPC-9 was fed into the analogue input channel of a data acquisition card.
The model runs in polling mode using the ode5 fixed time step solver with a step size of 50 μS.
The dynamic clamp system was configured to account for leak conductance, and to also simulate the function of potassium channels, which were not present in the HEK cell.
Following attainment of a whole cell clamp in the HEK cell, a period of 10 minutes was allowed for diffusion of the pipette solution into the intracellular volume of the cell. During this period cells were held at −85 mV.
Control was transferred to the Simulink system and a range of current injections were trialled to achieve a steady state action potential firing of 50-100 Hz (FIG. 8). This firing was stable and continued as long as a stimulating current injection was maintained. […]

skeletal muscle Nav1.4 sodium channels, sequence (P35499 whole entry): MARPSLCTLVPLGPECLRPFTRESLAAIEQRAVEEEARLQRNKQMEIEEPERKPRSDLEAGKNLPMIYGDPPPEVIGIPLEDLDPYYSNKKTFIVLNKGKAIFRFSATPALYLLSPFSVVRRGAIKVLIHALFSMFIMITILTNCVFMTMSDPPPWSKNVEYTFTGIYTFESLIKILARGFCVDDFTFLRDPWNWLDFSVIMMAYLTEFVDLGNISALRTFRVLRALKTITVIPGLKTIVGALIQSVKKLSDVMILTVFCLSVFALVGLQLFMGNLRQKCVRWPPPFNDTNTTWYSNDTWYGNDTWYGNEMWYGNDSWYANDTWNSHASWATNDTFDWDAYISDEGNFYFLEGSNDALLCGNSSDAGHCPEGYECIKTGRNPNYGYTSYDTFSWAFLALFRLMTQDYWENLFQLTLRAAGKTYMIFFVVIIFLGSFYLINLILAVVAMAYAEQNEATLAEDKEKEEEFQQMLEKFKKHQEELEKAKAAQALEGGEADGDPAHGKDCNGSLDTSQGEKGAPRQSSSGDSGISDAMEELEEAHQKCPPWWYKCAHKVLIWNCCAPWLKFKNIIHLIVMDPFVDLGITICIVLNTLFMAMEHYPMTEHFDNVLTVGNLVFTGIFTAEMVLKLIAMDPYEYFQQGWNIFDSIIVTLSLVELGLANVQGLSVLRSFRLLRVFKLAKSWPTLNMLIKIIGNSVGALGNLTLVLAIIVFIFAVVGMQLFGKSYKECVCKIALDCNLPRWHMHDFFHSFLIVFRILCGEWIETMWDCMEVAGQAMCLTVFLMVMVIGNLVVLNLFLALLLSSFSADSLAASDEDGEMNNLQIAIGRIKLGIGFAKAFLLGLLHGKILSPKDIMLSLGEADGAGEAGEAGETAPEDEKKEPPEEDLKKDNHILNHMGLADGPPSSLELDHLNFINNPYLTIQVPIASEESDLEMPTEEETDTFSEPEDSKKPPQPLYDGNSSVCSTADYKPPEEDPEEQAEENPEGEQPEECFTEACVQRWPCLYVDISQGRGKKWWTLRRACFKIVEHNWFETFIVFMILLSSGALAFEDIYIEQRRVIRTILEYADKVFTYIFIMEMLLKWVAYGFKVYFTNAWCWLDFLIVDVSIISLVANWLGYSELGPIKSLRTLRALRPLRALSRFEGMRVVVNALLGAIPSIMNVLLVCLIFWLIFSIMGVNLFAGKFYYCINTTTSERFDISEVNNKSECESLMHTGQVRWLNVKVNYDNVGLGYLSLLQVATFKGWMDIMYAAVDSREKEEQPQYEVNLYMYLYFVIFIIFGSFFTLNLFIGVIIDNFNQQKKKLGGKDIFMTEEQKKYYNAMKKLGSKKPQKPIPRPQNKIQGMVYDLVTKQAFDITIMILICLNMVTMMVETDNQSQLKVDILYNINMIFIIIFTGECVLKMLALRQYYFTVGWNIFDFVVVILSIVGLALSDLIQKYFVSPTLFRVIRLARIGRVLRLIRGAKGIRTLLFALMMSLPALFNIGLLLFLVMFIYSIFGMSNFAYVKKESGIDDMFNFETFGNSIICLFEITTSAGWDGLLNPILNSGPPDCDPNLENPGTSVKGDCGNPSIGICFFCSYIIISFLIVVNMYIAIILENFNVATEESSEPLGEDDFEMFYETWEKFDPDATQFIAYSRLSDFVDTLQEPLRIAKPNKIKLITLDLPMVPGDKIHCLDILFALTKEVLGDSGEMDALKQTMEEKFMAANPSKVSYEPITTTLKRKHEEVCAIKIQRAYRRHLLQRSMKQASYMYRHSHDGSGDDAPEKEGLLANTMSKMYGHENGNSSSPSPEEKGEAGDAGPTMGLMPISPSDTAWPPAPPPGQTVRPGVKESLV

NC(=O)N1c2ccccc2C=Cc2ccccc21 [carbamazepine]
action potential firing rate (50 μM in bath solution perfused onto HEK cells expressing Nav1.4, steady state firing of 50-100 Hz before compound): decreased the action potential firing rate; also recorded: decrease in action potential firing rate | number of action potentials elicited by a stimulating current step (continued presence of 50 μM, HEK cells expressing Nav1.4, no further firing would occur): 2-3
